The record followed here is patent US7241581B2, “Methods of identifying compounds that modulate IL-4 receptor-mediated IgE synthesis utilizing a c-MYC protein” (Rigel Pharmaceuticals, Inc., priority 2002, dated 2007).

The experiment concerns germline ε promoter. The experiment can be described thus: Functional profile of BR10A1 wt and mutants in the A5T4 reporter cell line. It counts as cell-based, human. The note with it: A5T4 reporter line. Here is the method:
Following infection, the library was enriched for cells expressing peptides that inhibit IL-4 induced ε transcription as generally outlined in the top half of FIG. 3 and sorted by FACS into single cell clones. The clones were then screened as generally illustrated in the lower half of FIG. 3. Briefly, for screening, each clone was divided into two populations and one population was treated with Dox (10 ng/ml). After 5 days, both populations were stimulated with IL-4 (final conc. 60 U/mL; PeptroTech, Inc.) and, after 3 more days, both populations were analyzed by FACS to measure BFP and GFP fluorescence. FACS data were converted to a “reporter ratio”, which is defined for this purpose as the ratio of the geometric mean of GFP fluorescence of the +IL-4/+Dox to the +IL-4/−Dox populations. Cells expressing a peptide that inhibits germline ε transcription have a reporter ratio of ≧1.1. A reporter ratio of ≧1.2 is indicative of strong inhibition.
The ability of peptide BR10A1 wt to inhibit germline ε transcription was confirmed in naive cells. Briefly, Phoenix cells were transfected with a retroviral vector encoding a BFP-BR10A1 wt peptide fusion as described in WO 99/58663 and WO 97/27213. Naïve A5T4 cells were infected with the resultant virions and grown for 3 days. The infected cells were stimulated with IL-4 (60 U/mL) and, after 3 days, the cells were assessed by FACS for BFP and GFP. […] The BFP fluorescence data corresponding to the BFP^+ and BFP^− populations are provided in Panel A. The GFP fluorescence data corresponding to the BFP^+ and BFP^− populations are presented in Panel B. The reporter ratio for this purpose is determined as the geometric mean of the GFP fluorescence of the BFP^− population divided by the geometric mean of the GFP fluorescence of the BFP^+ population. The reporter ratio for the BR10A1 in this re-infection assay was 1.27.
A collection of BR10A1 mutants was generated by replacing single or double amino acid residues in the sequence of BR10A1 wt with a different amino acid, typically an alanine or glycine, as described in copending application Ser. No.10/095,659, entitled Methods of Identifying Protein Targets, filed Mar. 8, 2002 . The functional profiles for the mutants derived from BR10A1 wt was obtained by constructing and screening for activity in the A5T4 reporter cell line in the manner described above. The activity of each mutant at the germline ε promoter is reflected in the reporter ratio as described above. The reporter ratios were the functional values that were used to develop the functional profiles. Measurement of the reporter ratios of the mutant peptides was carried out in a number of separate experiments, each time comparing the value of cells transfected with mutant peptide to that of cells transfected with control WT peptide done at the same time. The reporter ratios of the control WT peptide can vary depending upon a number of factors including the infectivity or the state of the infected cells at the time of infection.
TABLE 2 depicts the amino acid sequences (the dual alanine mutations are underlined) of the mutants tested and the measured reporter ratios when screening in the A5T4 reporter line.
Comparison of the interaction and functional profiles was performed by categorizing the mutants of BR10A1 based on the functional and interaction assays. Based on the reporter ratio, each mutant was categorized into one of four functional categories: (1) reduction of function (ROF); (2) loss of function (LOF); (3) increase of function (IOF) or (4) functionally neutral (N) as compared to the activity of the wild type peptide, here BR10A1 wt. As mentioned previously, cells expressing a peptide that inhibits germline ε transcription have reporter ratios of ≧1.1. Cells expressing a loss of function (LOF) mutant have a reporter ratio of <1.11. […] Functionally neutral mutants have reporter ratios that fall within ±50% of that of the BR10A1 wt peptide. […]

Take “MQRRESCITRSVEEGWGLFYLGP (peptide encoded by random oligo-BR10A1wt) [wild-type peptide from random library, expressed in cells as BFP-peptide fusion]”: the “Reporter Ratio” value (first value column (separate experiment with its own WT control)) came to 1.27, the “Reporter Ratio” value (fourth value column (separate experiment with its own WT control)) was found to be 1.35, the “Reporter Ratio” value (second value column (separate experiment with its own WT control)) turned out to be 1.36 and the “Reporter Ratio” value (separate experiment with its own WT control) is on record as 1.55.
